Measured values reported in the supplement of paper PMC11061612.

What was measured:
[1] = compound: CC(=O)O[C@H]1C(=O)[C@@]2(C)[C@H]([C@H](OC(=O)c3ccccc3)[C@]3(O)C[C@H](OC(=O)[C@H](O)[C@@H](NC(=O)c4ccccc4)c4ccccc4)C(C)=C1C3(C)C)[C@]1(OC(C)=O)CO[C@@H]1C[C@@H]2O [Paclitaxel]; conditions: max 3 µM
Procedure, shortened: (§1)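 Cancer cell lines were plated in 1536-well plates in 7.5 μl of DMEM/F12 or RPMI with 10% FBS and kept 24 hours at 37°C and 5% CO2 before 72 hours of dosing, with final DMSO typically 0.2%. CellTiter-Glo 2.0 luminescence measured viability, scaled between blank-well and DMSO-well means. Dose responses were fitted to a two-parameter logistic curve with a non-linear mixed effects model. This fit gives the single-agent IC50.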

[2] = compound: C[C@@H](c1ccc2nccn2c1)n1nnc2ncc(-c3cnn(C)c3)nc21 [Savolitinib]; conditions: max 1 µM
Procedure, shortened: as §1

[3] = compound: COc1cc([C@@H]2c3cc4c(cc3[C@@H](O[C@@H]3O[C@@H]5CO[C@@H](C)O[C@H]5[C@H](O)[C@H]3O)[C@H]3COC(=O)[C@H]23)OCO4)cc(OC)c1O [Etoposide]; conditions: max 10 µM
Procedure, shortened: as §1

[4] = compound: Cc1cc2ncnn2cc1Nc1ncc2c(n1)n(C1CCOCC1)c(=O)n2C [AZD7648]; conditions: max 10 µM
Procedure, shortened: as §1

[5] = compound: CC(C)n1c(=O)n(C)c2cnc3cc(F)c(-c4ccc(OCCCN5CCCCC5)nc4)cc3c21 [AZD1390]; conditions: max 0.3 µM
Procedure, shortened: as §1

[6] = compound: N#Cc1cnc(Nc2cc(NC[C@H]3CNCCO3)c(C(F)(F)F)cn2)cn1 [SRA737]; conditions: max 10 µM
Procedure, shortened: as §1

[7] = compound: COc1nnc2ccc(N3CCC(c4ccc(OCCN5CCN(C)C(=O)[C@H]5C)cc4)CC3)nn12 [AZD5153]; conditions: max 1 µM
Procedure, shortened: as §1

[8] = compound: CN(CC[C@H](CSC1=CC=CC=C1)NC2=C(C=C(C=C2)S(=O)(=O)NC(=O)C3=CC=C(C=C3)N4CCC(CC4)[C@H](C5=CC=CC=C5C6=CC=C(C=C6)Cl)O)S(=O)(=O)C(F)(F)F)CCO [AZD4320]; conditions: max 1 µM
Procedure, shortened: as §1

[9] = compound: CC1(C)CCC(CN2CCN(c3ccc(C(=O)NS(=O)(=O)c4ccc(NCC5CCOCC5)c([N+](=O)[O-])c4)c(Oc4cnc5[nH]ccc5c4)c3)CC2)=C(c2ccc(Cl)cc2)C1 [Venetoclax]; conditions: max 1 µM
Procedure, shortened: as §1

[10] = compound: COc1cc(Nc2ncc3c(n2)-c2ccc(Cl)cc2C(c2c(F)cccc2OC)=NC3)ccc1C(=O)O [Alisertib]; conditions: max 10 µM
Procedure, shortened: as §1

[11] = compound: CC(=O)Nc1cccc(-n2c(=O)n(C3CC3)c(=O)c3c(Nc4ccc(I)cc4F)n(C)c(=O)c(C)c32)c1 [Trametinib]; conditions: max 1 µM
Procedure, shortened: as §1

[12] = compound: O=C(c1cc(Cc2n[nH]c(=O)c3ccccc23)ccc1F)N1CCN(C(=O)C2CC2)CC1 [Olaparib]; conditions: max 10 µM
Procedure, shortened: as §1

[13] = compound: CCc1c2c(nc3ccc(O)cc13)-c1cc3c(c(=O)n1C2)COC(=O)[C@]3(O)CC [SN-38]; conditions: max 0.3 µM
Procedure, shortened: as §1

[14] = compound: O=C(Nc1ccc2[nH]nc(-c3ccncc3)c2c1)[C@@H]1CCN(CC(=O)N2CCN(c3ccc(-c4ncccn4)cc3)CC2)C1; conditions: max 5 µM
Procedure, shortened: as §1

[15] = compound: COc1cccc(OCCCN)c1-c1cc(Nc2cnc(C#N)cn2)n[nH]1 [Prexasertib]; conditions: max 1 µM
Procedure, shortened: as §1

[16] = compound: C[C@@H](Nc1cc(F)cc(F)c1)c1cc(C(=O)N(C)C)cc2c(=O)cc(N3CCOCC3)oc12 [AZD8186]; conditions: max 10 µM
Procedure, shortened: as §1

[17] = compound: CC(=O)c1c(C)c2cnc(Nc3ccc(N4CCNCC4)cn3)nc2n(C2CCCC2)c1=O [Palbociclib]; conditions: max 10 µM
Procedure, shortened: as §1

[18] = compound: C1CN(CCC1(C(=O)N[C@@H](CCO)C2=CC=C(C=C2)Cl)N)C3=NC=NC4=C3C=CN4 [AZD5363]; conditions: max 10 µM
Procedure, shortened: as §1

[19] = compound: CN(C)CCCOc1ccc(-c2ccc3ncc4c(c3c2)n(C2CCOCC2)c(=O)n4C)cn1 [AZD0156]; conditions: max 3 µM
Procedure, shortened: as §1

[20] = compound: CC1=CN2[C@@H](C1)C=NC3=CC(=C(C=C3C2=O)OC)OCCCCCOC4=C(C=C5C(=C4)N=C[C@@H]6CC(=CN6C5=O)C)OC [SG3199]; conditions: max 0.001 µM
Procedure, shortened: as §1

[21] = compound: CCN(CCO)CCCOc1ccc2c(Nc3cc(CC(=O)Nc4cccc(F)c4)[nH]n3)ncnc2c1 [AZD2811]; conditions: max 1 µM
Procedure, shortened: as §1

[22] = compound: CS(=O)(=O)CCNCc1ccc(-c2ccc3ncnc(Nc4ccc(OCc5cccc(F)c5)c(Cl)c4)c3c2)o1 [Lapatinib]; conditions: max 10 µM
Procedure, shortened: as §1

[23] = compound: Nc1ccn([C@@H]2O[C@H](CO)[C@@H](O)C2(F)F)c(=O)n1 [Gemcitabine]; conditions: max 0.3 µM
Procedure, shortened: as §1

[24] = compound: Cn1cnc2c(F)c(Nc3ccc(Br)cc3Cl)c(C(=O)NOCCO)cc21 [Selumetinib]; conditions: max 10 µM
Procedure, shortened: as §1

[25] = compound: C[C@@H]1COCCN1C2=NC(=NC(=C2)C3(CC3)[S@](=N)(=O)C)C4=C5C=CNC5=NC=C4 [AZD6738]; conditions: max 10 µM
Procedure, shortened: as §1

[26] = compound: C[C@@H](Oc1cc(-c2cnn(C3CCNCC3)c2)cnc1N)c1c(Cl)ccc(F)c1Cl [Crizotinib]; conditions: max 10 µM
Procedure, shortened: as §1

[27] = compound: CC1=C(C(=CC=C1)Cl)NC(=O)C2=CN=C(S2)NC3=CC(=NC(=N3)C)N4CCN(CC4)CCO [Dasatinib]; conditions: max 2 µM
Procedure, shortened: as §1

[28] = compound: Cc1c2c(nn1C)CSCc1cc(n(C)n1)CSc1cc(c3ccccc3c1)OCCCc1c(C(=O)O)n(C)c3c-2c(Cl)ccc13 [AZD5991]; conditions: max 1 µM
Procedure, shortened: as §1

[29] = compound: COc1cccc2c1C(=O)c1c(O)c3c(c(O)c1C2=O)C[C@@](O)(C(=O)CO)C[C@@H]3O[C@H]1C[C@H](N)[C@H](O)[C@H](C)O1 [Doxorubicin]; conditions: max 1 µM
Procedure, shortened: as §1

[30] = compound: C1CC(C1)(C(=O)[O-])C(=O)[O-].N.N.[Pt+2] [Carboplatin]; conditions: max 10 µM
Procedure, shortened: as §1

[31] = compound: Cc1nc(-c2cn3c(n2)-c2ccc(-c4cnn(C(C)(C)C(N)=O)c4)cc2OCC3)n(C(C)C)n1 [Taselisib]; conditions: max 10 µM
Procedure, shortened: as §1

[32] = compound: NC1(c2ccc(-c3nc4ccn5c(=O)[nH]nc5c4cc3-c3ccccc3)cc2)CCC1 [MK-2206]; conditions: max 10 µM
Procedure, shortened: as §1

[33] = compound: COc1cc2ncnc(Nc3ccc(F)c(Cl)c3)c2cc1OCCCN1CCOCC1 [Gefitinib]; conditions: max 10 µM
Procedure, shortened: as §1

[34] = compound: O=c1[nH]cc(F)c(=O)[nH]1 [5-Fluorouracil]; conditions: max 20 µM
Procedure, shortened: as §1

[35] = compound: C=CCn1c(=O)c2cnc(Nc3ccc(N4CCN(C)CC4)cc3)nc2n1-c1cccc(C(C)(C)O)n1 [AZD1775]; conditions: max 3 µM
Procedure, shortened: as §1

| Cell Line | IC50, cell viability 72 h [1] [nM] | IC50, cell viability 72 h [2] [nM] | IC50, cell viability 72 h [3] [nM] | IC50, cell viability 72 h [4] [nM] | IC50, cell viability 72 h [5] [nM] | IC50, cell viability 72 h [6] [nM] | IC50, cell viability 72 h [7] [nM] | IC50, cell viability 72 h [8] [nM] | IC50, cell viability 72 h [9] [nM] | IC50, cell viability 72 h [10] [nM] | IC50, cell viability 72 h [11] [nM] | IC50, cell viability 72 h [12] [nM] | IC50, cell viability 72 h [13] [nM] | IC50, cell viability 72 h [14] [nM] | IC50, cell viability 72 h [15] [nM] | IC50, cell viability 72 h [16] [nM] | IC50, cell viability 72 h [17] [nM] | IC50, cell viability 72 h [18] [nM] | IC50, cell viability 72 h [19] [nM] | IC50, cell viability 72 h [20] [nM] | IC50, cell viability 72 h [21] [nM] | IC50, cell viability 72 h [22] [nM] | IC50, cell viability 72 h [23] [nM] | IC50, cell viability 72 h [24] [nM] | IC50, cell viability 72 h [25] [nM] | IC50, cell viability 72 h [26] [nM] | IC50, cell viability 72 h [27] [nM] | IC50, cell viability 72 h [28] [nM] | IC50, cell viability 72 h [29] [nM] | IC50, cell viability 72 h [30] [nM] | IC50, cell viability 72 h [31] [nM] | IC50, cell viability 72 h [32] [nM] | IC50, cell viability 72 h [33] [nM] | IC50, cell viability 72 h [34] [nM] | IC50, cell viability 72 h [35] [nM] |
| --- | --- | --- | --- | --- | --- | --- | --- | --- | --- | --- | --- | --- | --- | --- | --- | --- | --- | --- | --- | --- | --- | --- | --- | --- | --- | --- | --- | --- | --- | --- | --- | --- | --- | --- | --- |
| KYSE-220 (Esophageal Squamous Cell Carcinoma) | 42.4 | > 1000 | 2520 | > 10000 | > 300 | > 10000 | 358 | > 1000 | > 1000 | 9200 | 287 | > 10000 | 17.5 | > 5000 | 16.3 | > 10000 | > 10000 | > 10000 | > 3000 | > 1 | > 1000 | 4250 | 33 | 9200 | 1190 | 5480 | > 2000 | > 1000 | 94.3 | > 10000 | 1220 | > 10000 | > 10000 | > 20000 | 355 |
| LU-165 (Small Cell Lung Carcinoma) | > 3000 | > 1000 | > 10000 | > 10000 | > 300 | > 10000 | > 1000 | > 1000 | > 1000 | > 10000 | > 1000 | > 10000 | > 300 | > 5000 | 220 | > 10000 | > 10000 | > 10000 | > 3000 | > 1 | > 1000 | > 10000 | > 300 | > 10000 | > 10000 | > 10000 | > 2000 | > 1000 | > 1000 | > 10000 | > 10000 | > 10000 | > 10000 | > 20000 | 2940 |
